# Measured values published in the supplement of paper PMC10307832.
# What was measured:
# Assay in all cases: relative viability (nuclei count vs DMSO), 5 days (fraction); higher = more cells survive
# [1] = compound: C[C@@H](N)c1ccc(C(=O)Nc2ccnc3[nH]ccc23)cc1 + Cc1cc(Nc2cc(N3CCN(C)CC3)nc(Sc3ccc(NC(=O)C4CC4)cc3)n2)n[nH]1 [Tozasertib] (partner 0.1 µM)
# Method in brief: (§1)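 Relative viability is defined as nuclei in treated wells over nuclei in vehicle wells. Duplicate plates were run and medians reported. Lung cancer cell lines in 1536-well plates were dosed by pin tool one day after seeding, with one drug or with a fixed anchor-drug dose plus five library-drug doses (not always all listed) in √10 steps, and nuclei were counted after 5 days.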
# [2] = compound: C[C@@H](N)c1ccc(C(=O)Nc2ccnc3[nH]ccc23)cc1 + CC(=O)Nc1cccc(-n2c(=O)n(C3CC3)c(=O)c3c(Nc4ccc(I)cc4F)n(C)c(=O)c(C)c32)c1 [Trametinib] (partner 0.02 µM)
# Method in brief: as §1
# [3] = compound: C[C@@H](N)c1ccc(C(=O)Nc2ccnc3[nH]ccc23)cc1 + Cc1nc(NC(=O)N2CCC[C@H]2C(N)=O)sc1-c1ccnc(C(C)(C)C(F)(F)F)c1 [Alpelisib] (partner 2 µM)
# Method in brief: as §1
# [4] = compound: C[C@@H](N)c1ccc(C(=O)Nc2ccnc3[nH]ccc23)cc1 + CC(=O)c1c(C)c2cnc(Nc3ccc(N4CCNCC4)cn3)nc2n(C2CCCC2)c1=O [Palbociclib] (partner 0.5 µM)
# Method in brief: as §1
cell line,measurement,setting,value
UMC-11,relative viability,[1]; first compound 0.04 µM,0.215
same,relative viability,[1]; first compound 0.1265 µM,0.18
same,relative viability,[1]; first compound 0.4 µM,0.205
same,relative viability,[1]; first compound 4 µM,0.198
same,relative viability,[2]; first compound 0.04 µM,0.867
same,relative viability,[2]; first compound 0.1265 µM,0.767
same,relative viability,[2]; first compound 0.4 µM,0.849
same,relative viability,[2]; first compound 1.265 µM,0.184
same,relative viability,[2]; first compound 4 µM,0.525
same,relative viability,[3]; first compound 0.04 µM,1.12
same,relative viability,[3]; first compound 0.1265 µM,1.05
same,relative viability,[3]; first compound 0.4 µM,1.14
same,relative viability,[3]; first compound 1.265 µM,0.997
same,relative viability,[3]; first compound 4 µM,0.467
same,relative viability,[4]; first compound 0.1265 µM,0.334
same,relative viability,[4]; first compound 0.4 µM,0.306
same,relative viability,[4]; first compound 1.265 µM,0.29
same,relative viability,[4]; first compound 4 µM,0.318
